Here are results for four compounds from US20110177964A1, “CHEMOSENSORY ARRAYS” (THE TRUSTEES OF PRINCETON UNIVERSITY, priority 2009, published 2011).

The target of assay [1] is T1, K-3 mutant receptor (Homo sapiens, UniProt Q15391, A193V/A252V/A98G/E278G/F243I/K54E).
T1 construct: expressed in transfected cells; host or cells: Saccharomyces yeast; strain CY10981 with FUS1-LacZ plasmid for β-galactosidase assays, strain CY10560 (FUS1-HIS3) for growth selection
T1 sequence (Q15391 with tags, fused parts or gaps K54E/A98G/A193V/F243I/A252V/E278G): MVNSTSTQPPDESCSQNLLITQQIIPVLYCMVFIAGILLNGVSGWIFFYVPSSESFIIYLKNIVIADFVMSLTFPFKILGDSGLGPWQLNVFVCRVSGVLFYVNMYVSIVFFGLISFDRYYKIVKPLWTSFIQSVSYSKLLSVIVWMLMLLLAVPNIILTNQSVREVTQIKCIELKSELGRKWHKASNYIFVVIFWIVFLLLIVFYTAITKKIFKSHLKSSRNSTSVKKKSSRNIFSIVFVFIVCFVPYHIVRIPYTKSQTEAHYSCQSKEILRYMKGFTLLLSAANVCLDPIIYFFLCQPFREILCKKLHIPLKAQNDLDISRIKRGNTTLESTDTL
Put plainly: Yeast growth plate assay (FUS1-HIS3 reporter) on selective media containing ligand. Format: cell-based. The conditions noted are these: K-3 mutant relative to its parent H-20.
Description: The ‘HIAR’ motif in transmembrane domain 6 was targeted. […] Libraries containing the randomized HIAR motif were constructed in vivo by cotransforming strain CY10560 cells with three DNA fragments: a 2211 receptor plasmid cut to remove the HIAR domain and a pair of PCR products synthesized with oligonucleotides randomized over the HIAR region and 50 and 30 extensions overlapping both sides of the gap in the plasmid. […] The 20 receptors isolated in this primary screen were subsequently retested for growth in the presence of lower concentrations of each ligand, to ascertain whether the receptor had significant changes in ligand preference. […] To determine whether the receptors that lacked appreciable changes in ligand specificity were indeed mutants and to verify the complexity of the mutant library, the DNA encoding each receptor was sequenced.
H-20 was selected as the template for mutagenesis of three additional motifs, ‘AxxFY’ and ‘NMY’ in TM3 and ‘KExT’ in TM7. These mutants were tested in the same manner as the HIAR mutants, focusing only on mutants with clear changes in relative growth on one or more ligands.

The target in assay [2] is T2, 2211 receptor (Homo sapiens, UniProt Q15391, A193V/A252V/A98G/F243I/K54E).
T2 construct: expressed in transfected cells; host or cells: Saccharomyces yeast; strain CY10981 with FUS1-LacZ plasmid for β-galactosidase assays, strain CY10560 (FUS1-HIS3) for growth selection
T2 sequence (Q15391 with tags, fused parts or gaps K54E/A98G/A193V/F243I/A252V): T1 sequence (Q15391 with tags, fused parts or gaps K54E/A98G/A193V/F243I/A252V/E278G) with G278E
Described as above. The conditions noted are these: 2211 (parent) receptor, selective plates with ligand. Format: cell-based.
Description: Mutagenesis and selection of sensitized receptor mutants: The entire UDPG receptor gene was mutagenized via errorprone mutagenesis to an estimated frequency of −2-5 mutations/kb following the Mutazyme protocol. […] A total of (1-2)×10^5 colonies were screened by replica plating to SC-His medium (Kaiser, C., Michaelis, S, and Mitchell, A. (1994) Methods in Yeast Genetics: A Cold Spring Harbor Laboratory Course Manual. Cold Spring Harbor Laboratory Press, Cold Spring Harbor, N.Y., which is incorporated herein by reference as if fully set forth) with or without ligand. Yeast growth media was supplemented by 1 mM 3AT, a competitive inhibitor of the HIS3 reporter gene product, which sets the threshold for reporter gene activation.
Cells were transformed with a plasmid library carrying the randomly mutated human UDPG receptor gene.
The 20 receptors isolated in this primary screen were subsequently retested for growth in the presence of lower concentrations of each ligand, to ascertain whether the receptor had significant changes in ligand preference. […] To determine whether the receptors that lacked appreciable changes in ligand specificity were indeed mutants and to verify the complexity of the mutant library, the DNA encoding each receptor was sequenced.

Assay [3] deals with T3, L-3 (R3) receptor (Homo sapiens, UniProt Q15391, A193V/A252V/A285S/A98G/F243I/K54E/L281V/L282F).
T3 construct: expressed in transfected cells; host or cells: Saccharomyces yeast; strain CY10981 with FUS1-LacZ plasmid for β-galactosidase assays
T3 sequence (Q15391 with tags, fused parts or gaps K54E/A98G/A193V/F243I/A252V/L281V/L282F/A285S): T1 sequence (Q15391 with tags, fused parts or gaps K54E/A98G/A193V/F243I/A252V/E278G) with G278E, L281V, L282F, A285S
As to the kind of experiment: Yeast FUS1-lacZ β-galactosidase reporter assay, single receptor-single ligand calibration curves fitted by Bayesian nested sampling. Format: cell-based. The conditions noted are these: for ΔG (receptor-ligand binding free energy): L-3 (R3) expressed in yeast, average ± s.d. from posterior; for A (receptor efficacy): L-3 (R3), 1 = full agonist, 0 = full antagonist. The source says: (§1) To assess receptor ligand interactions quantitatively in the chemosensor array, the receptors were functionally expressed in yeast. To do so, the yeast pheromone receptor was replaced with one of the sensor GPCRs in strains in which the pheromone response pathway was modified to respond to the heterologous receptor by inducing transcription of the E. coli lacZ gene. See the example section below. In this fashion, the extent of GPCR activation following ligand addition could be monitored as the level of β-galactosidase produced in the cell, which was measured using a fluorescence-based assay. See the example section below.
(§2) Receptor responses to binding of a single ligand. It was assumed that the observed signal in the receptor-bearing reporter strain is proportional to the probability that the receptor is bound by the ligand. This proportionality value, A, which is referred to as the receptor efficacy, can range from 1, for a full agonist, to 0, for a full antagonist, with intermediate values indicating partial agonist activity. In the simplest case of a single receptor interacting with a single ligand, the amount of activation of the reporter in the receptor bearing strain is given by:
(§3) where A is the receptor efficacy, ΔG is the receptor-ligand binding free energy, b is the background intensity, β=1/kBT (kB is the Boltzmann constant, and T is the temperature), and μ^l=kBT log n^l, which is the chemical potential, where n^l is the ligand concentration. In the example of fluorescing products, I can be measured by a fluorescent assay, but the intensity of any report may be utilized. […] In this example, the four receptors are R1: H-20, R2: K-3, and R3: L-3, R4: 2211. See the example section below for details regarding these receptors. […] For each curve, intensity normalized by the maximum intensity on the plate is plotted against log10 n (n is the ligand concentration in M). The error bars on each curve are from four biological replicates. The single receptor-single ligand binding curves can be used to calibrate the biophysical model (Eq. (1)) by inferring ΔG, A and b for each receptor-ligand combination and knowledge of μ^l. Specifically, Bayesian inference is applied. Referring to FIG. 4, the posterior probability P(ΔG, A, b, σ|{Ĩ}) is found by nested sampling (see below), where Ĩ=(l=1 . . . N) is the lth fluorescent and a is the noise parameter. […] This step provides calibration by returning the most likely value of ΔG, A and b for each receptor-ligand pair, as well as a value σ, which represents the noise in the response. The average value of each parameter obtained by marginalization of the posterior probability can be subsequently used for analysis of a mixture of compounds.
(§4) In this example, yeast cultures expressing each of the four mutant receptors (2211, H-20, K-3 and L-3) were grown overnight and diluted to OD600 of […] in flasks. Cultures were then grown to an OD600 of 0.1-0.2 and 80 μl of culture was aliquotted into deep-well 384 well plates along with 20 μL of ligand. Cultures in the 384 well plates were incubated with vigorous mixing for 4 hours (H-20, K-3, L-3) or overnight (2211). 50 μL of each sample was transferred to a black 384 well plate containing 25 μL fluorescein/lysis solution (as described in Chambers J, et al.). Fluorescence was read on a PerkinElmer fluorescent plate reader.

For assay [4], the target named is T4, H-20 (R1) receptor (Homo sapiens, UniProt Q15391, A193V/A252V/A98G/F243I/I251T/K54E/R253K).
T4 construct: expressed in transfected cells; host or cells: Saccharomyces yeast; strain CY10981 with FUS1-LacZ plasmid for β-galactosidase assays, strain CY10560 (FUS1-HIS3) for growth selection
T4 sequence (Q15391 with tags, fused parts or gaps K54E/A98G/A193V/F243I/I251T/A252V/R253K): T1 sequence (Q15391 with tags, fused parts or gaps K54E/A98G/A193V/F243I/A252V/E278G) with I251T, R253K, G278E
The description is as above. The conditions noted are these: for ΔG (receptor-ligand binding free energy): H-20 (R1) expressed in yeast, average ± s.d. from posterior; for A (receptor efficacy): H-20 (R1), 1 = full agonist, 0 = full antagonist. Format: cell-based.
Description: as §1, §2, §3, §4

Assay [5] addresses T5, K-3 (R2) receptor (Homo sapiens, UniProt Q15391, A193V/A252V/A98G/E278G/F243I/K54E).
T5 construct: expressed in transfected cells; host or cells: Saccharomyces yeast; strain CY10981 with FUS1-LacZ plasmid for β-galactosidase assays, strain CY10560 (FUS1-HIS3) for growth selection
T5 sequence (Q15391 with tags, fused parts or gaps K54E/A98G/A193V/F243I/A252V/E278G): T1 sequence (Q15391 with tags, fused parts or gaps K54E/A98G/A193V/F243I/A252V/E278G)
Described as above. Format: cell-based. The conditions noted are these: for ΔG (receptor-ligand binding free energy): K-3 (R2) expressed in yeast, average ± s.d. from posterior; for A (receptor efficacy): K-3 (R2), 1 = full agonist, 0 = full antagonist.
Description: as §1, §2, §3, §4

Assay [6] addresses T6, 2211 (R4) receptor (Homo sapiens, UniProt Q15391, A193V/A252V/A98G/F243I/K54E).
T6 construct: expressed in transfected cells; host or cells: Saccharomyces yeast; strain CY10981 with FUS1-LacZ plasmid for β-galactosidase assays, strain CY10560 (FUS1-HIS3) for growth selection
T6 sequence (Q15391 with tags, fused parts or gaps K54E/A98G/A193V/F243I/A252V): T1 sequence (Q15391 with tags, fused parts or gaps K54E/A98G/A193V/F243I/A252V/E278G) with G278E
The assay is described as above. In kind it is cell-based, yeast expressing yeast expressing yeast expressing yeast expressing human receptor receptor receptor receptor. The conditions noted are these: for ΔG (receptor-ligand binding free energy): 2211 (R4) expressed in yeast, average ± s.d. from posterior; for A (receptor efficacy): 2211 (R4), 1 = full agonist, 0 = full antagonist.
Description: as §1, §2, §3, §4

Numbering of substitutions follows the chain as printed.

In the case of `O=c1ccn([C@@H]2O[C@H](COP(=O)(O)OP(=O)(O)O)[C@@H](O)[C@H]2O)c(=O)[nH]1` [UDP, uridine diphosphate], in assay [1], the “yeast growth in response to ligand” value is “grew”. Also, the “receptor response to ligand (yeast growth)” value (shortened to “receptor response to ligand”) in assay [2] is “do not activate”. In addition, the “ΔG (receptor-ligand binding free energy)” value in assay [3] was -7.4 ± .1 kcal/mol; in assay [4], -7.42 ± .05 kcal/mol; in assay [5], -8.2 ± .2 kcal/mol; in assay [6] it was -10.3 ± .3 kcal/mol. In addition, the “A (receptor efficacy)” value in assay [3] was “.02 ± .02”; in assay [4], “.008 ± .009”; in assay [5] it was “.18 ± .01”; in assay [6] it was “.010 ± .009”. The agonist/antagonist character result in assay [3] (L-3, small A, large negative ΔG) is listed as “antagonist”; in assay [4] (H-20, small A, large negative ΔG), “antagonist”; in assay [5] (K-3, small A, large negative ΔG), “antagonist”; in assay [6] (2211, small A, large negative ΔG), “antagonist”.
For `CC(=O)N[C@H]1[C@@H](OP(=O)(O)OP(=O)(O)OC[C@H]2O[C@@H](n3ccc(=O)[nH]c3=O)[C@H](O)[C@@H]2O)O[C@H](CO)[C@H](O)[C@@H]1O` [UDP-GalNAc, UDP-N-acetylgaltactosamine], the “receptor response to ligand” value in assay [2] is listed as “responds”.
`CC(=O)N[C@H]1[C@@H](OP(=O)(O)OP(=O)(O)OC[C@H]2O[C@@H](n3ccc(=O)[nH]c3=O)[C@H](O)[C@@H]2O)O[C@H](CO)[C@@H](O)[C@@H]1O` [UDP-GlcNAc, UDP-N-acetylglucosamine]: the “receptor response to ligand” value in assay [2] is “responds”. The “ΔG (receptor-ligand binding free energy)” value in assay [3] is -5.60 ± .06 kcal/mol; in assay [4], -6.16 ± .06 kcal/mol; in assay [5] it was -5.36 ± .06 kcal/mol; in assay [6] it was -8.00 ± .09 kcal/mol. Further, the “A (receptor efficacy)” value is recorded as “.43 ± .01” in assay [3], “.51 ± .01” in assay [4], “.55 ± .01” in assay [5] and “.89 ± .04” in assay [6].
Turning to `Cc1cn([C@H]2C[C@H](O)[C@@H](COP(=O)(O)OP(=O)(O)O[C@H]3O[C@H](CO)[C@@H](O)[C@H](O)[C@H]3O)O2)c(=O)[nH]c1=O` [dTDP-glucose], in assay [2], the “receptor response to ligand” value is reported as “do not activate”.
